Laboratory results: patent US20200055041A1, “DEVICE, SYSTEM AND METHODS FOR ELECTROPHYSIOLOGICAL INTERROGATION OF CELLS AND TISSUES” (Nanosurface Biomedical, Inc., priority 2017, published 2020)
Like-named read-outs stand apart in the source and are kept apart here.

How the values were obtained:
hPSC-CM monolayers [1] = experiment: MEA field potential recording (FPDc, arrhythmia) of hPSC-CM monolayers on flat MEAs and nanoMEAs
Text: Median difference in beat interval (ΔBI), mean ΔBI, and the standard deviation of the ΔBI were compared in order to provide quantification of baseline arrhythmic properties in line with previously published methods.
The ability to pattern individual wells within a multiwell MEA plate enabled assessment of multiple doses across both surface conditions within a single device, thereby increasing throughput for such comparative studies. Verapamil was first examined as a negative control compound.
FIG. 12A depicts representative traces (averaged across 10 beats) recorded from hPSC-CM monolayers on flat MEAs and subjected to increasing doses of verapamil. FIG. 12B depicts representative traces recorded from hPSC-CM monolayers on nanoMEAs and subjected to increasing doses of verapamil. FIG. 12C depicts normalized dose response curve illustrating the effect for increasing concentrations of verapamil on the field potential durations corrected for beat rate (FPDc) of unpatterned and patterned hPSC-CMs.
[…] depicts representative traces recorded from hPSC-CM monolayers on flat MEAs and subjected to increasing doses of cisapride. […] depicts representative traces recorded from hPSC-CM monolayers on nanoMEAs and subjected to increasing doses of cisapride. FIG. 12F depicts normalized dose response curve illustrating the effect of increasing concentrations of cisapride on the FPDc of unpatterned and patterned hPSC-CMs.
The mechanism by which bepridil prolongs QT is yet to be fully elucidated. However, in addition to regulating Ca^2+ release, it is known that bepridil competes with cTnI for troponin C binding sites, thereby altering Ca^2+ sensitivity in exposed cells. […] FIG. 12G depicts representative traces recorded from hPSC-CM monolayers on flat MEAs and subjected to increasing doses of bepridil. FIG. 12H depicts representative traces recorded from hPSC-CM monolayers on nanoMEAs and subjected to increasing doses of bepridil. FIG. 12I depicts normalized dose response curve illustrating effect of increasing concentrations of bepridil on the FPDc of unpatterned and patterned hPSC-CMs.

3D cardiac tissues = experiment: Field potential duration of 3D cardiac tissues on nanoMEA; format: cell-based; conditions: increasing doses, 3D patterned versus 2D unpatterned and 2D patterned, 21 days culture
Protocol: FIG. 15 depicts engineered cardiac tissue responses to treatment with increasing doses of the hERG channel blocker cisapride on 2D unpatterned, 2D patterned and 3D patterned cell cultures. […] In this experiment, cells are first plated onto a nanoMEA substrate in a 4 μL droplet of medium. 17,500 cells are resuspended in this droplet and allowed to adhere to the substrate for 1 hour. At this point, a further 17,500 cells in 2 μL of medium are plated on top of the existing droplet and allowed to adhere to the first layer of cells. This process is repeated 2 more times to form 4 layers of cells on top of the patterned substrate. Cells on the first layer align in parallel with the underlying substrate and subsequent layers align in parallel with the layer below. Cardiomyocytes are mixed with cardiac fibroblasts at a ratio of 10 cardiomyocytes to 1 fibroblast. An hour after the last plating, the MEA wells are flooded with additional medium to maintain the cells and the constructs are then cultured out to 21 days before being used for drug screening assessment.

patterned hPSC-CMs = experiment: Fluorometric cellular ROS / NO / superoxide detection assay in patterned hPSC-CMs; format: cell-based, human; conditions: patterned cells
Protocol: PGC1-α is known to perform a central controlling role in global oxidative metabolism through induction of mitochondrial biogenesis and tuning of the intrinsic metabolic properties of mitochondria_ENREF_35. […] Based on this understanding, a fluorometric cellular ROS detection assay was performed on unpatterned and patterned hPSC-CMs to determine whether upregulation of the PGC1-α protein in patterned cells had any notable impact on oxidative stress. FIGS. 8A-8F show the effect of nanotopography on expression of oxidative stress markers in cultured hPSC-CMs. […] Samples analyzed were patterned cells treated with an NO scavenger (NO−), patterned cells treated with an NO inducer (NO+), untreated unpatterned cells, and untreated patterned cells. […] No difference was observed between flat and patterned samples. […] Samples analyzed were patterned cells treated with an ROS inhibitor (ROS−), patterned cells treated with an ROS inducer (ROS+), untreated unpatterned cells, and untreated patterned cells. […] […] A significant difference was also observed between flat and patterned samples. In all presented data, *p<0.05.

[2] = system: HCM hPSC-CMs (MYH7 R663H variant); experiment: Depolarizing spike slope of HCM patient-derived hPSC-CMs on flat and patterned MEAs; format: cell-based, human; conditions: 1 μM, 30 minutes, patterned HCM cells
Text: Hypertrophic cardiomyopathy (HCM) manifests as a thickening of the myocardial tissue, typically due to mutations in genes encoding specific sarcomeric proteins.
FIG. 14A depicts an immunostained image of hPSC-CMs obtained from HCM patients and maintained on flat Nafion substrates. FIG. 14B depicts an immunostained image of hPSC-CMs obtained from an unaffected family member related to the examined HCM patient and maintained on flat Nafion substrates. FIG. 14C depicts an immunostained image of hPSC-CMs obtained from HCM patients and maintained on patterned Nafion substrates. FIG. 14D depicts an immunostained image of hPSC-CMs obtained from an unaffected family member related to the examined HCM patient and maintained on patterned Nafion substrates. FIG. 14E depicts quantification of sarcomere length measured from HCM and familial control hPSC-CMs maintained on flat and patterned Nafion substrates. FIG. 14F depicts quantification of z-band width measured from HCM and familial control hPSC-CMs maintained on flat and patterned Nafion substrates. FIG. 14G depicts representative QRS complex traces collected from HCM hPSC-CMs on flat and patterned MEAs. FIG. 14H depicts fold-change in average spike slope (Q-R angle) measured across 30 beats from normal and HCM hPSC-CMs on flat and patterned MEAs. […]

hPSC-CM monolayers [3] = experiment: MEA conduction velocity (TCV, LCV) across hPSC-CM monolayers on flat and nanotopographically-patterned MEAs; format: cell-based, human; conditions: for IC50: Homo sapiens, longitudinal conduction velocity, read-out: IC50 from LCV data
Text: Additionally, interrogation of monolayer culture by MEA facilitates assessment of conduction velocity in a manner that is difficult when using single cell analysis methods, such as patch clamp electrophysiology. For all propagation experiments discussed herein, longitudinal conduction dictates the vertical orientation on the MEA as all nanopatterns were oriented to run vertically during pattern generation. FIG. 6I depicts measurement of conduction velocity (CV) across hPSC-CM monolayers on flat and nanotopographically-patterned MEAs. Conduction was measured specifically in both the transverse (TCV) and longitudinal (LCV) orientations and underlying nanotopography was organized to run longitudinally. In all presented data, *p<0.03, **p<0.003, ***p<0.001. […] Furthermore, longitudinal conduction velocities measured from patterned cells were substantially faster than similar measurements taken from flat controls, as well as global (non-directional) conduction velocity measurements. Specifically, longitudinal conduction velocity measured from patterned cells was recorded as 32.73 cm/s±9.51, whereas flat controls produced longitudinal and global conduction speeds of 10.32 cm/s±2.62 and […], respectively.
In cardiac tissue, it is known to exert a strong conduction blocking effect, inhibiting action potential propagation and in turn affecting synchronous contraction of the tissue.
Dose response curves were calculated from analysis of propagation speeds in both the transverse (TCV) and longitudinal (LCV) directions. The R^2 values for TCV and LCV curve fits were 0.23 and 0.11, respectively. […] The R^2 values for TCV and LCV curve fits were 0.21 and 0.28, respectively.
Furthermore, the inconsistency of the propagation waves on these surfaces led to substantial variability in measured values across experimental repeats, making it difficult to construct well-fitted dose response curves. […] Residual values indicate the vertical distance (in Y units; in this case % change in conduction velocity) of the measured points from the fit line.

[4] = unpatterned and patterned cells, increasing doses

COc1cc(N)c(Cl)cc1C(=O)NC1CCN(CCCOc2ccc(F)cc2)CC1OC (stereo not shown) [cisapride]
effect on FPDc / field potential (hPSC-CM monolayers [1]): significant prolongation of the field potential
FPDc prolongation (hPSC-CM monolayers [1]; 1 μM, cells on both substrates): ~50%
field potential duration prolongation, 3D versus 2D cultures (3D cardiac tissues): significantly stronger reactions

N=C(N)NCCC[C@H](N)C(=O)O [L-arginine]
pixel intensity, NO detection reagent (patterned hPSC-CMs): significantly higher than all other groups

CC(=O)N[C@@H](CS)C(=O)O [N-acetyl-L-cysteine]
pixel intensity, oxidative stress detection reagent (patterned hPSC-CMs): significantly lower than all other groups examined, with the exception of the patterned samples
pixel intensity, superoxide detection reagent (patterned hPSC-CMs): significantly lower than all other groups

Cn1c2cccc(=O)c-2nc2ccccc21 [Pyocyanin]
pixel intensity, oxidative stress detection reagent (patterned hPSC-CMs): significantly higher values then all other groups
pixel intensity, superoxide detection reagent (patterned hPSC-CMs): significantly higher than all other groups

COc1ccc(CCN(C)CCCC(C#N)(c2ccc(OC)c(OC)c2)C(C)C)cc1OC (stereo not shown) [verapamil]
arrhythmogenic effect (hPSC-CM monolayers [1]; [4]): no notable arrhythmogenic effect
effect on FPDc / field potential (hPSC-CM monolayers [1]; [4]): significant shortening of FPDc
effect on depolarizing spike slope [2]: improved patterned HCM spike slopes

c-PTIO
pixel intensity, NO detection reagent (patterned hPSC-CMs): significantly lower than all other groups

CC(C)COCC(CN(Cc1ccccc1)c1ccccc1)N1CCCC1 (stereo not shown) [bepridil]
change in FPDc (hPSC-CM monolayers [1]): not significantly different from baseline
effect on FPDc (hPSC-CM monolayers [1]): significant prolongation of FPDc
change in FPDc from baseline (hPSC-CM monolayers [1]; 1 μM, flat cells): 7%
increase of FPDc from baseline (hPSC-CM monolayers [1]; 1 μM, patterned cells): roughly 20%

CC1(C)[C@@H](OC(=O)CCC(=O)O)CC[C@]2(C)[C@H]3C(=O)C=C4[C@@H]5C[C@@](C)(C(=O)O)CC[C@]5(C)CC[C@@]4(C)[C@]3(C)CC[C@@H]12 [carbenoxolone]
IC50 (hPSC-CM monolayers [3]; flat hPSC-CM monolayers): 398 nM
IC50 (hPSC-CM monolayers [3]; nanotopographically-patterned hPSC-CM monolayers): 14.7 nM
effect on conduction speeds (hPSC-CM monolayers [3]; in vitro, nanoMEA platform): significantly reduced conduction speeds
